In patent US8609650B2, “Bridged bicyclic aryl and bridged bicyclic heteroaryl substituted triazoles useful as Axl inhibitors” (Rigel Pharmaceuticals, Inc., priority 2006, dated 2013):

target: T1, Axl (Homo sapiens, UniProt P30530); assay: Phospho-Akt In-Cell Western Assay (ability to inhibit Axl activity); type: cell-based; details: Hela cells, stimulated by Axl-antibody cross-linking, phospho-Akt chemiluminescence normalized to relative cell number
T1 construct: endogenous in cells; host or cells: HeLa cells
T1 sequence (P30530 26-894): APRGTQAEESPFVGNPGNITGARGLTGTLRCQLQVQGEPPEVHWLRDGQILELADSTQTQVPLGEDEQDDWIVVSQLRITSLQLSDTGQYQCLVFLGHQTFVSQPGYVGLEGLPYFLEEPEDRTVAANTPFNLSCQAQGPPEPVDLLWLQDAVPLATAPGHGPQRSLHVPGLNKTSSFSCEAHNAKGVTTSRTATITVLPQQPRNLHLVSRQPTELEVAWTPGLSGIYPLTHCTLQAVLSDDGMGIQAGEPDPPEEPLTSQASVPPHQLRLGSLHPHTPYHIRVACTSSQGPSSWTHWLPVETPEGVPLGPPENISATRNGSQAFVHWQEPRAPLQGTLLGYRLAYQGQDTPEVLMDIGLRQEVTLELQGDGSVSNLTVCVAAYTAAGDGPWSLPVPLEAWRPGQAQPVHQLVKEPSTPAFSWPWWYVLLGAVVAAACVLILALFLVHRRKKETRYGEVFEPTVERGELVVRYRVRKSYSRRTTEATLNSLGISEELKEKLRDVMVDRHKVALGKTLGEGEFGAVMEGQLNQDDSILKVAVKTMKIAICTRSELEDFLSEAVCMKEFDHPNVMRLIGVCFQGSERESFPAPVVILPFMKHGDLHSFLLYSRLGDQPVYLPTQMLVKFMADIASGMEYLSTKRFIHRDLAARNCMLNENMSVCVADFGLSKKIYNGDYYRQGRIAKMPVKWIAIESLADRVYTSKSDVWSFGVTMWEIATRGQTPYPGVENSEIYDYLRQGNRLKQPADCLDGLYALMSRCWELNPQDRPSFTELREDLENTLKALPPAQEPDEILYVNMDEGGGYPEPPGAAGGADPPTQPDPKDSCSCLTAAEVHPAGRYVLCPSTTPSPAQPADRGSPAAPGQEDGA
Method: The compounds of the invention were tested in the following assay for their ability to inhibit Axl activity.
Phospho-Akt In-Cell Western Assay
• Cell culture plate: 96 well assay plate (Corning 3610), white, clear bottom, tissue-culture treated. • Cells: Hela cells. • Starvation medium: For Axl stimulation: 0.5% FCS (fetal calf serum) in DMEM, plus Axl/Fc (extracellular domain of AXL fused to immunoglobulin Fc region) (R&D, 154-AL) 500 ng/mL. • For EGF (epidermal growth factor) stimulation: 0.5% FCS in DMEM (Dulbecco's modified Eagles medium). • Poly-L-Lysine 0.01% solution (the working solution): 10 μg/ml, dilute In PBS (phosphate buffered saline). • Axl antibody cross-linking: • 1st: Mouse anti-Axl (R&D, MAB154). • 2nd: Biotin-SP-conjugated AffiniPure goat anti-mouse IgG (H+L) (Jackson ImmunoResearch #115-065-003). • Fixing buffer: 4% formaldehyde in PBS. • Wash buffer: 0.1% TritonX-100 in PBS. • Quenching buffer: 3% H2O2, 0.1% Azide in wash buffer, Azide and hydrogen peroxide (H2O2) are added fresh. • Blocking buffer: 5% BSA in TBST (tris buffered saline plus 0.1% Tween 20). • Primary antibody: Rabbit anti-human Phospho-Akt antibody (Cell Signaling 9271): 1×250 diluted in blocking buffer. • Secondary antibody: HRP (horse radish peroxidase)-conjugated Goat anti-Rabbit secondary, stock solution: Jackson ImmunoResearch (Goat anti-Rabbit HRP, #111-035-144) 1:1 diluted in glycerol, store at −20° C. The working solution: 1×2000 dilution of stock in blocking buffer. • Chemiluminescent working solution (Pierce, 37030): SuperSignal ELISA (enzyme linked immunosorbant assay) Pico Chemiluminescent substrate. • Crystal Violet solution: Stock: 2.5% Crystal violet in methanol, filtered and kept at ambient temperature. The working solution: dilute the stock 1:20 with PBS immediately before use. • 10% SDS: working solution: 5% SDS (sodium dodecylsulfate), diluted in PBS Methods: Day 1:
A 96 well TC (tissue culture treated) plate was coated with 10 μg/mL poly-L-Lysine at 37° C. for 30 min, washed twice with PBS, and air-dried for 5 minutes before cells were added. Hela cells were seeded at 10,000 cells/well and the cells were starved in 100 μL starvation medium containing Axl/Fc for 24 hrs.
The cells were pre-treated with test compounds by adding 100 μL of 2× test compound to the starvation medium on the cells. The cells were incubated at 37° C. for 1 hr before stimulation.
The cells were stimulated by Axl-antibody cross-linking as follows: A 5×1st/2nd Axl antibody mixture was made (37.5 μg/mL 1st/100 μg/mL 2nd) in starvation medium and nutated at 4° C. with thorough mixing for 1-2 hours for clustering. The resulting mix was warmed to 37° C. 50 μL of 5× Axl 1st/2nd of antibody cluster was added to the cells and the cells were incubated at 37° C. for 5 min.
After 5 minutes stimulation, the plate was flicked to remove medium and the plate was tapped onto paper towels. Formaldehyde (4.0% in PBS, 100 μL) was added to fix the cells and the cells were incubated at ambient temperature for 20 min without shaking.
The cells were washed with a plate washer buffer to remove the formaldehyde solution. The plate was flicked to removed excess wash buffer and tapped onto paper towels. Quenching buffer (100 μL) was added to each well and the cells were incubated at ambient temperature for 20 minutes without shaking.
The cells were washed with a plate washer buffer to remove the quenching buffer. Blocking buffer (100 μL) was added and the cells were incubated at ambient temperature for at least an hour with gentle shaking.
The cells were washed with a plate washer buffer and diluted primary antibody (50 μL) was added to each well (blocking buffer was added to the negative control wells instead). The plates were incubated overnight at 4° C. with gentle shaking.
The wash buffer was removed, diluted secondary antibody (100 μL) was added, and the cells were incubated at ambient temperature for 1 hour with gentle shaking. […]

IC50 [nM] | Molecule
< 1000 | Nc1nc(Nc2ccc(N3CCC(N4CCCC4)CC3)c(F)c2)nn1-c1cc(-c2ccc(C(F)(F)F)cc2)c2c(n1)C1CCN2CC1 [Compound 57, 1-(1,4-ethano-8-(4-trifluoromethylphenyl)-1,2,3,4-tetrahydro-1,5-naphthyridin-6-yl)-N^3-(3-fluoro-4-(4-(pyrrolidin-1-yl)piperidin-1-yl)phenyl)-1H-1,2,4-triazole-3,5-diamine]
< 1000 | Cc1cc(Nc2nc(N)n(-c3cc(-c4ccccc4)c4c(n3)C3CCN4CC3)n2)ccc1N1CCC(N2CCCC2)CC1 [Compound 68, 1-(1,4-ethano-8-phenyl-1,2,3,4-tetrahydro-1,5-naphthyridin-6-yl)-N^3-(3-methyl-4-(4-(pyrrolidin-1-yl)piperidin-1-yl)phenyl)-1H-1,2,4-triazole-3,5-diamine]
< 1000 | Nc1nc(Nc2ccc3c(c2)CCC(N2CCC(N4CCCC4)CC2)CC3)nn1-c1cc(-c2ccccc2)c2c(n1)C1CCN2CC1 (centres unmarked) [Compound 71, 1-(1,4-ethano-8-phenyl-1,2,3,4-tetrahydro-1,5-naphthyridin-6-yl)-N^3-(7-(4-pyrrolidin-1-ylpiperidin-1-yl)-6,7,8,9-tetrahydro-5H-benzo[7]annulene-3-yl)-1H-1,2,4-triazole-3,5-diamine]
< 1000 | Nc1nc(Nc2ccc(N3CCC(N4CCC(C(=O)O)CC4)CC3)c(F)c2)nn1-c1cc(-c2ccccc2)c2c(n1)C1CCN2CC1 [Compound 59, 1-(1,4-ethano-8-phenyl-1,2,3,4-tetrahydro-1,5-naphthyridin-6-yl)-N^3-(3-fluoro-4-(4-(4-carboxypiperidin-1-yl)piperidin-1-yl)phenyl)-1H-1,2,4-triazole-3,5-diamine]
< 1000 | Nc1nc(Nc2ccc(N3CCN(CC(=O)O)CC3)c(F)c2)nn1-c1cc(-c2ccccc2)c2c(n1)C1CCN2CC1 [Compound 56, 1-(1,4-ethano-8-phenyl-1,2,3,4-tetrahydro-1,5-naphthyridin-6-yl)-N^3-(3-fluoro-4-(4-carboxymethylpiperazin-1-yl)phenyl)-1H-1,2,4-triazole-3,5-diamine]
< 1000 | Nc1nc(Nc2ccc(N3CCC(N4CCCC4)CC3)c(F)c2)nn1-c1cc(-c2cccnc2)c2c(n1)C1CCN2CC1 [Compound 63, 1-(1,4-ethano-8-pyridin-3-yl-1,2,3,4-tetrahydro-1,5-naphthyridin-6-yl)-N^3-(3-fluoro-4-(4-(pyrrolidin-1-yl)piperidin-1-yl)phenyl)-1H-1,2,4-triazole-3,5-diamine]

Second part, the molecule before the results:

Molecule | IC50 [nM]
Nc1nc(Nc2ccc(OCCN3CCCC3)cc2)nn1-c1ncc2c(n1)C1CCC2C1 (centres unmarked) [Compound 1, 1-(5,8-methano-5,6,7,8-tetrahydroquinazolin-2-yl)-N^3-(4-(2-(pyrrolidin-1-yl)ethoxy)phenyl)-1H-1,2,4-triazole-3,5-diamine] | > 20000
CCN(CC)C1CCN(c2ccc(Nc3nc(N)n(-c4ncnc5c4C4CCC5C4)n3)cc2F)CC1 (centres unmarked) [Compound 17, 1-(5,8-methano-5,6,7,8-tetrahydroquinazolin-4-yl)-N^3-(3-fluoro-4-(4-diethylaminopiperidin-1-yl)phenyl)-1H-1,2,4-triazole-3,5-diamine] | < 1000
Nc1nc(Nc2ccc(N3CCN(C4CCCCCCC4)CC3)cc2)nn1-c1ncc2c(n1)C1CCC2C1 (centres unmarked) [Compound 9, N^3-(4-(4-cyclooctylpiperazin-1-yl)phenyl)-1-(5,8-methano-5,6,7,8-tetrahydroquinazolin-2-yl)-1H-1,2,4-triazole-3,5-diamine] | < 1000
CN1CCN(c2ccc(Nc3nc(N)n(-c4ncc5c(n4)C4CCC5C4)n3)cc2)CC1 (centres unmarked) [Compound 4, 1-(5,8-methano-5,6,7,8-tetrahydroquinazolin-2-yl)-N^3-(4-(4-methylpiperazin-1-yl)phenyl)-1H-1,2,4-triazole-3,5-diamine] | < 1000
Cc1cc(Nc2nc(N)n(-c3cc(-c4ccccc4)c4c(n3)C3CCN4CC3)n2)cnc1N1CCN(CC2CC2)CC1 [Compound 50, 1-(1,4-ethano-8-phenyl-1,2,3,4-tetrahydro-1,5-naphthyridin-6-yl)-N^3-(3-methyl-2-(4-cyclopropylmethylpiperazin-1-yl)pyridine-5-yl)-1H-1,2,4-triazole-3,5-diamine] | < 1000
1-(5,8-dimethylmethano-8-methyl-5,6,7-trihydroquinazolin-2-yl)-N^3-(3-fluoro-4-(4-(pyrrolidin-1-yl)piperidin-1-yl)phenyl)-1H-1,2,4-triazole-3,5-diamine [Compound 21] | < 1000
Nc1nc(Nc2ccc(N3CCN(C4CCCCCC4)CC3)cc2)nn1-c1ncc2c(n1)C1CCC2C1 (centres unmarked) [Compound 10, N^3-(4-(4-cycloheptylpiperazin-1-yl)phenyl)-1-(5,8-methano-5,6,7,8-tetrahydroquinazolin-2-yl)-1H-1,2,4-triazole-3,5-diamine] | < 1000
Nc1nc(Nc2ccc(N3CCC(N4CCCC4)CC3)c(F)c2)nn1-c1cc(-c2cccs2)c2c(n1)C1CCC2C1 (centres unmarked) [Compound 53, 1-(5,8-methano-4-thiophen-2-yl-5,6,7,8-tetrahydroquinoline-2-yl)-N^3-(3-fluoro-4-(4-(pyrrolidin-1-yl)piperidin-1-yl)phenyl)-1H-1,2,4-triazole-3,5-diamine] | < 1000
CCSc1nc2c(c(-n3nc(Nc4ccc(OCCN5CCCC5)cc4)nc3N)n1)C1CCC2C1 (centres unmarked) [Compound 2, 1-(2-ethylthio-5,8-methano-5,6,7,8-tetrahydroquinazolin-4-yl)-N^3-(4-(2-(pyrrolidin-1-yl)ethoxy)phenyl)-1H-1,2,4-triazole-3,5-diamine] | < 1000
CCOC(=O)CN1CCN(c2ccc(Nc3nc(N)n(-c4cc(-c5ccccc5)c5c(n4)C4CCN5CC4)n3)cc2F)CC1 [Compound 55, 1-(1,4-ethano-8-phenyl-1,2,3,4-tetrahydro-1,5-naphthyridin-6-yl)-N^3-(3-fluoro-4-(4-ethyloxycarbonylmethylpiperazin-1-yl)phenyl)-1H-1,2,4-triazole-3,5-diamine] | < 1000
Cc1cc(Nc2nc(N)n(-c3cc(-c4cccs4)c4c(n3)C3CCC4C3)n2)cnc1N1CCN(CC2CC2)CC1 (centres unmarked) [Compound 52, 1-(5,8-methano-4-thiophen-2-yl-5,6,7,8-tetrahydroquinoline-2-yl)-N^3-(3-methyl-2-(4-cyclopropylmethylpiperazin-1-yl)pyridine-5-yl)-1H-1,2,4-triazole-3,5-diamine] | < 1000
